The record followed here is the Bradley open melting point set (2014).

Where “and” joins values, the source holds several entries; their conditions need not be identical. Identical values can stand only once. Counter-ions that a name gives are not always drawn.

Usually melting point stands for the temperature of the solid-liquid transition. `O=C(O)CCCCCCCCCCCCCCO` [15-hydroxypentadecanoic acid]: the melting point stood at 86 °C.
Next, `NC(=O)CCCCC(N)=O` [Adipamide]: 220 °C; `[2H]C([2H])([2H])C([2H])([2H])C([2H])([2H])C([2H])([2H])C([2H])([2H])C([2H])([2H])C([2H])([2H])C([2H])([2H])C([2H])([2H])C([2H])([2H])C([2H])([2H])C([2H])([2H])C([2H])([2H])C([2H])([2H])C([2H])([2H])C([2H])([2H])C([2H])([2H])C(=O)O` [(~2~H_35_)Octadecanoic acid]: 67 °C; `N#Cc1ccc(O)c(Cl)c1` [3-chloro-4-hydroxybenzonitrile]: 148 °C.
For `c1cc2ccc3cccc4ccc(c1)c2c34` [Pyrene] the value was 151 °C; for `O=C1CS/C(=N\c2ccccc2)N1c1ccccc1` [OSM-S-47], 176 °C; for `Cc1nc(-c2ccccn2)sc1C(=O)O` [4-methyl-2-(2-pyridyl)thiazole-5-carboxylic acid], 226 °C.
Molecule `CC(=O)NNC(N)=S` [1-acetyl-3-thiosemicarbazide] displayed a melting point of 167 °C.
Next, `CC(C)Cc1ccc(C(C)C(=O)O)cc1` (stereo not given) [2-(4-Isobutylphenyl)propanoic acid]: 77.5 °C.
Consider `OC(c1ccc(Cl)cc1)(c1ccc(Cl)cc1)C(Cl)(Cl)Cl` [2,2,2-Trichloro-1,1-bis(4-chlorophenyl)ethanol], for which the melting point worked out at 78.5 °C.
The molecule `O=C(O)c1ccc(Br)o1` [5-bromo-2-furoic acid] displayed a melting point of 190 °C.
As to `O=C(O)Cc1ccccc1-c1ccccc1` [o-phenyl_phenylacetic_acid], the melting point worked out at 116 °C.
With `CCI` [iodoethane], the melting point was -108 °C.
In turn, `COc1ccccc1OC(=O)c1ccccc1` [2-methoxyphenyl benzoate] showed a melting point of 59 °C.
For `Clc1cccc(Cl)c1` [1,3-Dichlorobenzene] the value was -24.8 °C; for `CCCCCCCCCCCC(=O)OOC(=O)CCCCCCCCCCC` [Diundecylperoxyanhydride], 56 °C.
For `O=C(O)c1cc(F)cc(F)c1O` [3,5-difluorosalicylic acid] the value was 189 °C; for `O=c1ccc2cc([N+](=O)[O-])ccc2o1` [6-nitrocoumarin], 188 °C.
Regarding `NC(=O)C1c2ccccc2Oc2ccccc21` [xanthene-9-carboxamide], the melting point is 245 °C.
For `Nc1cc(Br)ccc1C(O)c1ccccc1` (stereo not given) [(2-amino-4-bromophenyl)(phenyl)methanol] the value was 113 °C; for `O=Cc1cccc(O)c1` [3-hydroxybenzaldehyde], 105 °C.
Molecule `Oc1cc(O)c(Cl)cc1Cl` [4,6-dichlororesorcinol] displayed a melting point of 115 °C.
Molecule `C[C@@H]1CCCC[C@@H]1O` (relative stereo) [cis-2-methylcyclohexanol] displayed a melting point of 8 °C.
`O=C(O)Cc1ccccc1Cl` [2-chlorophenylacetic acid] yielded a melting point of 96 °C.
Next, `OB(O)c1cc2ccccc2nc1Br` [2-bromoquinoline-3-boronic acid]: 146 °C; `NC(=O)c1ccc(CO)cc1` [p-hydroxymethyl_benzamide]: 135 °C.
For `ClC(Cl)(Cl)c1ccccc1` [(Trichloromethyl)benzene] the value was -5 °C; for `CCN(CC)CCNC(=O)c1cc(Cl)c(N)cc1OC` [metoclopramide], 147 °C; for `C=CC(=O)OCC` [Ethyl acrylate], -71 °C.
In turn, `c1ccc2c(c1)ccc1cc3c(ccc4ccccc43)cc12` [Benzo[k]tetraphene] displayed a melting point of 266 °C.
Next, `CC1(C)[C@H]2CC[C@]1(CS(=O)(=O)Cl)C(=O)C2` [(1R)-camphor-10-sulfonyl chloride]: 66 °C; `CC(=O)S[C@@H]1CC2=CC(=O)CC[C@]2(C)[C@H]2CC[C@@]3(C)[C@@H](CC[C@@]34CCC(=O)O4)[C@H]12` [spironolactone]: 134 °C; `COc1ccccc1O` [2-Methoxyphenol]: 28 °C.
`Cc1ccc(N)cc1` [p-toluidine]: the melting point is 44 °C.
Turning to `Cc1cc(C)c(B(O)O)c(C)c1` [2,4,6-trimethylbenzeneboronic acid], the melting point turned out to be 124 °C.
Next, `COC(=O)c1ccc(N(C)C)cc1` [methyl 4-dimethylaminobenzoate]: 100 °C; `O=C(O)CC(O)C(=O)O` (racemic) [dl-malic acid]: 132 °C; `COc1cccc(F)c1B(O)O` [2-fluoro-6-methoxybenzeneboronic acid]: 125 °C.
`CC(=O)NS(=O)(=O)c1ccc(N)cc1` [N-[(4-Aminophenyl)sulfonyl]acetamide]: the melting point was 182 °C.
The molecule `c1ccc2nc3ccccc3nc2c1` [phenazine] had a melting point of 176 °C.
Next, `Cc1cc(=O)n(-c2ccccc2)n1C` [Antipyrine]: 112 °C; `CC/C(=C(/CC)c1ccc(O)cc1)c1ccc(O)cc1` [4,4'-(3E)-Hex-3-ene-3,4-diyldiphenol]: 170 °C; `CC(C)[C@@H]1CC[C@@H](C)C[C@H]1O` [Menthol]: 43 °C.
Next, `NC(=O)c1cc(Cl)cc(Cl)c1` [3,5-dichlorobenzamide]: 160 °C; `N#CCCCCCCC#N` [1,6-dicyanohexane]: -3 °C.
For `CC(C)c1cccc(C(C)C)c1N` [2,6-diisopropylaniline] the value was -54 °C; for `Cc1ccc(N)c(Br)c1` [2-bromo-4-methylaniline], 14 °C; for `CC(=O)c1cccc(C(C)=O)c1` [m-diacetylbenzene], 36 °C.
In turn, `c1ccc(OCCOc2ccccc2)cc1` [1,2-diphenoxyethane] gave a melting point of 95 °C.
Molecule `O=C1NC(=O)c2cc([N+](=O)[O-])ccc21` [4-nitrophthalimide] registered a melting point of 198 °C.
For `CC(C)(C)C(=O)Nc1ccccc1B(O)O` [2-(2,2,2-trimethylacetamido)benzeneboronic acid] the value was 270 °C; for `COC(=O)[C@]1(C(=O)O)[C@@H]2CCC[C@@H]21`, 137 °C; for `CC(C)OC=O` [isopropyl formate], -93 °C.
Next, `CCCCOC(=O)CCC` [butyl butyrate]: -92 °C (3×) and -91.5 °C (2×).
Next, `OB(O)c1cccc(Oc2ccccc2)c1` [3-phenoxybenzeneboronic acid]: 141 °C; `OCc1ccccc1O[C@@H]1O[C@H](CO)[C@@H](O)[C@H](O)[C@H]1O` [2-(Hydroxymethyl)phenyl beta-D-glucopyranoside]: 199 °C; `COC(=O)c1ccc(C(=O)OC)nc1` [dimethyl pyridine-2,5-dicarboxylate]: 162 °C.
Regarding `CCCCCCc1ccccc1` [Hexylbenzene], the melting point is -61 °C.
In the case of `Cc1cccc(C(C)(C)C)c1` [1-methyl-3-tert-butylbenzene], the melting point is -41 °C.
Next, `COC(=O)CCCCCCCCC(=O)OC` [dimethyl sebacate]: 27 °C.
